Square brackets hold non-standard residues; d marks the D form. Ends that are not written are not given here. Peptide text beside a SMILES is read from it. Phe(4-NH2) = Nc1ccc(C[C@H](N)C(=O)O)cc1; Lys(Me) = CNCCCC[C@H](N)C(=O)O; hLeu = CC(C)CC[C@H](N)C(=O)O; Nle = CCCC[C@H](N)C(=O)O

In one experiment the target is T1, PD-1/PD-L1 (Homo sapiens, UniProt Q15116).
T1 construct: this kit uses ectodomains of PD-1 and PD-L1 that are expressed with orthogonal fusion tags (Tag-1 and Tag-2); purchased CisBio (currently Perkin-Elmer, Bedford, MA)
As to the kind of experiment: In vitro time-resolved FRET PD-1/PD-L1 binding assay (CisBio kit). The note with it: CisBio PD-1/PD-L1 binding kit, TR FRET, 96-well, 4-fold serial dilutions in triplicate, freshly dissolved peptides; read-out: IC50, inhibition of PD-1/PD-L1 binding (TR FRET assay). Here is the method:
Commercial PD-1/PD-L1 binding assay kit (CisBio, currently Perkin-Elmer, Bedford, MA) for time resolve fluorescent energy transfer (FRET) was used to assess peptides binding to PD-1. The assay for peptide screening was performed in a 96-well format (normal pressure), starting with 4-fold serial dilutions of each peptide in triplicate. No-peptide triplicate wells were used to assess fluorescent energy transfer in the absence of inhibition, and no-PD-1/PD-L1 triplicate wells were used to assess the background fluorescent energy transfer in the absence of PD-1/PD-L1 complexes. More detailed concentration dependences were obtained for selected peptides. Only freshly dissolved peptides were used in the assay. Various QSAR (quantitative structure activity relationship) hypotheses were tested by synthesizing batches of 10–12 peptides. In total, over one hundred candidates in ten iterations were screened for their ability to inhibit in vitro PD-1/PD-L1 binding using the commercial PD-1/PD-L1 binding assay kit (CisBio, currently Perkin-Elmer). Briefly, this kit uses ectodomains of PD-1 and PD-L1 that are expressed with orthogonal fusion tags (Tag-1 and Tag-2). It also includes two antibodies to selectively interact with these tags. The antibody against one tag is labeled with fluorescent moiety, which serves as a donor, while the other antibody is labeled with fluorescent moiety, which serves as an acceptor in fluorescent resonance energy transfer (FRET). When the complex is formed and probed with both anti-Tag-1 and anti-Tag-2 antibodies, donor and acceptor are sufficiently close, and FRET can be detected in a time-resolved (TR) manner. Inhibitors of PD-1/PD-L1 interactions prevent complex formation, leading to a decrease in TR FRET in a concentration-dependent manner, as shown in Figure 2 for four representative peptide inhibitors. Initial fourfold dilutions are exemplified by data for peptides B5.11 and B5.6 (panels A and B); examples of the more detailed follow-up concentration dependences are shown for peptides B2.4 and B2.22 (panels C and D). The potency of the inhibitors is then characterized by IC50, a concentration that inhibits TR FRET by 50%, allowing for a facile comparison of different inhibitors (Figure 2E).
Background: Time-resolved FRET reads energy transfer from a long-lived donor to a nearby acceptor.
As for `CCCC[C@H](NC(=O)[C@@H](NC(=O)[C@H](CCCNC(=N)N)NC(C)=O)C(C)C)C(=O)N[C@H](C(=O)N[C@H](C(=O)N[C@H](C(=O)NCC(=O)N[C@@H](C)C(=O)N[C@@H](C)C(=O)N[C@@H](Cc1c[nH]c2ccccc12)C(=O)N[C@@H](CC(=O)O)C(=O)N[C@@H](Cc1ccc(O)cc1)C(=O)N[C@@H](CCCCN)C(=O)N[C@@H](Cc1ccc(O)cc1)C(N)=O)C(C)C)[C@@H](C)CC)C(C)C` [B2.4] (Ac-RV[Nle]VIVGAAWDYKY-NH2), the IC50 came out at 0.5 µM.

The same experiment, now with this note: CisBio PD-1/PD-L1 binding kit, TR FRET, 96-well, serial dilutions in triplicate; NI = no inhibition at maximum concentration tested (* 5 μM, ** 50 μM); read-out: EC50 (Supplementary Table S1; inhibition of PD-1/PD-L1 binding by in vitro TR-FRET assay).
In general, EC50 refers to the concentration that produces a half-maximal response. Turning to Ac-DLIDGAAWDYKY-NH2 [B8.15], the EC50 is above 5 µM.
On the same count and under the same terms, the figure for `CCCC[C@H](N)C(=O)N[C@H](C(=O)N[C@H](C(=O)N[C@H](C(=O)NCC(=O)N[C@@H](C)C(=O)N[C@@H](C)C(=O)N[C@@H](Cc1c[nH]c2ccccc12)C(=O)N[C@@H](CC(=O)O)C(=O)N[C@@H](Cc1ccc(O)cc1)C(=O)N[C@@H](CCCCN)C(=O)N[C@@H](Cc1ccc(O)cc1)C(=O)O)C(C)C)[C@@H](C)CC)C(C)C` [B4.2] (H-[Nle]VIVGAAWDYKY-OH; N-terminus and C-terminus assumed) is above 5 µM.
The same measure, in the same setting: for Ac-DVIYGAAWDYKY-NH2 [B7.10] the value was above 5 µM; for `CC(=O)N[C@@H](CCC(C)C)C(=O)N[C@H](C(=O)N[C@@H](Cc1c[nH]c2ccccc12)C(=O)N[C@H](C(=O)NCC(=O)N[C@@H](C)C(=O)N[C@@H](C)C(=O)N[C@@H](Cc1c[nH]c2ccccc12)C(=O)N[C@@H](CC(=O)O)C(=O)N[C@@H](CCCNC(=N)N)C(=O)N[C@@H](CCCCN)C(=O)N[C@@H](Cc1ccc(O)cc1)C(N)=O)C(C)C)C(C)C` [B3.21] (Ac-[hLeu]VWVGAAWDRKY-NH2), above 5 µM.
Same read-out and setting: for `CCCC[C@H](NC(=O)[C@@H](NC(=O)[C@H](CCCNC(=N)N)NC(C)=O)C(C)C)C(=O)N[C@H](C(=O)N[C@H](C(=O)N[C@H](C(=O)NCC(=O)N[C@@H](C)C(=O)N[C@@H](C)C(=O)N[C@@H](Cc1c[nH]c2ccccc12)C(=O)N[C@@H](CC(=O)O)C(=O)N[C@@H](Cc1ccc(O)cc1)C(=O)N[C@@H](CCCCN)C(=O)N[C@@H](Cc1ccc(O)cc1)C(N)=O)C(C)C)[C@@H](C)CC)C(C)C` [B2.4] (Ac-RV[Nle]VIVGAAWDYKY-NH2) the value was 0.5 µM; for Ac-YVLVIVGAAWDKKY-NH2 [B2.26], 22 µM; for Ac-EVIVGAAWDYKY-NH2 [B5.12], above 5 µM.
Turning to `CC(=O)N[C@@H](CC(=O)O)C(=O)N[C@H](C(=O)N[C@@H](CCC(C)C)C(=O)N[C@@H](CC(=O)O)C(=O)NCC(=O)N[C@@H](C)C(=O)N[C@@H](C)C(=O)N[C@@H](Cc1c[nH]c2ccccc12)C(=O)N[C@@H](CC(=O)O)C(=O)N[C@@H](Cc1ccc(O)cc1)C(=O)N[C@@H](CCCCN)C(=O)N[C@@H](Cc1ccc(O)cc1)C(N)=O)C(C)C` [B8.14] (Ac-DV[hLeu]DGAAWDYKY-NH2), the concentration giving a half-maximal response (EC50) was above 5 µM.
Same read-out and setting: the figure for Ac-IVGAAWDYKY-NH2 [B3.1] is above 50 µM; for DVIVGAAWDYKY [B5.14] it is above 5 µM.
The same measure, in the same setting: the figure for Ac-LVIVGAAWDRKY-NH2 [B3.17] is above 50 µM; for Ac-RVKVIVGAAWDYKY-NH2 [B2.11] it is 55 µM; for `CC(=O)N[C@@H](CCC(C)C)C(=O)N[C@H](C(=O)N[C@@H](CCC(C)C)C(=O)N[C@H](C(=O)NCC(=O)N[C@@H](C)C(=O)N[C@@H](C)C(=O)N[C@@H](Cc1c[nH]c2ccccc12)C(=O)N[C@@H](CC(=O)O)C(=O)N[C@@H](Cc1ccc(O)cc1)C(=O)N[C@@H](CCCCN)C(=O)N[C@@H](Cc1ccc(O)cc1)C(N)=O)C(C)C)C(C)C` [B3.3] (Ac-[hLeu]V[hLeu]VGAAWDYKY-NH2) it is 35 µM.
On the same count and under the same terms, the figure for `CC(=O)N[C@H](CCC(=O)O)C(=O)N[C@@H](C)C(=O)N[C@@H](Cc1c[nH]c2ccccc12)C(=O)N[C@@H](CC(=O)O)C(=O)N[C@@H](Cc1ccc(O)cc1)C(=O)N[C@@H](CCCCN)C(=O)N[C@@H](Cc1ccc(O)cc1)C(N)=O` [B9.5] (Ac-[dE]AWDYKY-NH2) is above 5 µM; for `CC[C@H](C)[C@H](NC(=O)[C@@H](NC(=O)[C@@H](CC(=O)O)NC(C)=O)C(C)C)C(=O)N[C@@H](CC(=O)O)C(=O)NCC(=O)N[C@@H](C)C(=O)N[C@@H](C)C(=O)N[C@@H](Cc1c[nH]c2ccccc12)C(=O)N[C@@H](CC(=O)O)C(=O)N[C@@H](Cc1ccc(O)cc1)C(=O)N[C@@H](CCCCN)C(=O)N[C@@H](Cc1ccc(O)cc1)C(N)=O` [B8.19] (Ac-[dD]VIDGAAWDYKY-NH2) it is above 5 µM; for `CCCC[C@H](NC(=O)[C@@H](NC(=O)[C@H](CC(=O)O)NC(C)=O)C(C)C)C(=O)N[C@H](C(=O)NCC(=O)N[C@@H](C)C(=O)N[C@@H](C)C(=O)N[C@@H](Cc1c[nH]c2ccccc12)C(=O)N[C@@H](CC(=O)O)C(=O)N[C@@H](Cc1ccc(O)cc1)C(=O)N[C@@H](CCCCN)C(=O)N[C@@H](Cc1ccc(O)cc1)C(N)=O)C(C)C` [B5.8] (Ac-DV[Nle]VGAAWDYKY-NH2) it is above 5 µM.
Consider `CCCC[C@H](NC(=O)[C@@H](NC(=O)[C@@H](N)CCCNC(=N)N)C(C)C)C(=O)N[C@H](C(=O)N[C@H](C(=O)N[C@H](C(=O)NCC(=O)N[C@@H](C)C(=O)N[C@@H](C)C(=O)N[C@@H](Cc1c[nH]c2ccccc12)C(=O)N[C@@H](CC(=O)O)C(=O)N[C@@H](Cc1ccc(N)cc1)C(=O)N[C@@H](CCCCN)C(=O)N[C@@H](Cc1ccc(O)cc1)C(=O)O)C(C)C)[C@@H](C)CC)C(C)C` [B4.10] (H-RV[Nle]VIVGAAWD[Phe(4-NH2)]KY-OH; N-terminus and C-terminus assumed), for which the EC50 was above 5 µM.
The same measure, in the same setting: the figure for Ac-LVWVGAAWDYKY-NH2 [B3.2] is above 50 µM.
On the same count and under the same terms, the figure for Ac-DVIVGAAWDYKYLQ-NH2 [B7.5] is above 5 µM; for Ac-LEIKGAEWDYKY-NH2 [B3.18] it is above 50 µM.
Regarding Ac-DGAAWDYKY-NH2 [B9.0], the EC50 is above 5 µM.
Still for that read-out and setting: for Ac-RVLVIVGAALDYKY-NH2 [B2.30] the value was 35 µM; for `CCCC[C@H](NC(C)=O)C(=O)N[C@H](C(=O)N[C@@H](CC(C)C)C(=O)N[C@H](C(=O)N[C@H](C(=O)N[C@H](C(=O)NCC(=O)N[C@@H](C)C(=O)N[C@@H](C)C(=O)N[C@@H](Cc1c[nH]c2ccccc12)C(=O)N[C@@H](CC(=O)O)C(=O)N[C@@H](CCCNC(=N)N)C(=O)N[C@@H](CCCCN)C(=O)N[C@@H](Cc1ccc(O)cc1)C(N)=O)C(C)C)[C@@H](C)CC)C(C)C)C(C)C` [B2.16] (Ac-[Nle]VLVIVGAAWDRKY-NH2), 1 µM.
Still for that read-out and setting: the figure for Ac-WVWVGAAWDYKY-NH2 [B3.8] is above 50 µM; for `CCCC[C@H](NC(=O)[C@@H](NC(=O)[C@@H](N)CCCNC(=N)N)C(C)C)C(=O)N[C@H](C(=O)N[C@@H](Cc1c[nH]c2ccccc12)C(=O)N[C@H](C(=O)NCC(=O)N[C@@H](C)C(=O)N[C@@H](C)C(=O)N[C@@H](Cc1c[nH]c2ccccc12)C(=O)N[C@@H](CC(=O)O)C(=O)N[C@@H](Cc1ccc(O)cc1)C(=O)N[C@@H](CCCCN)C(=O)N[C@@H](Cc1ccc(O)cc1)C(=O)O)C(C)C)C(C)C` [B4.4] (H-RV[Nle]VWVGAAWDYKY-OH; N-terminus and C-terminus assumed) it is above 5 µM.
Still for that read-out and setting: the figure for `CC[C@H](C)[C@H](NC(=O)[C@@H](NC(=O)[C@H](CC(=O)O)NC(C)=O)C(C)C)C(=O)N[C@H](C(=O)NCC(=O)N[C@@H](C)C(=O)N[C@@H](C)C(=O)N[C@@H](Cc1c[nH]c2ccccc12)C(=O)N[C@@H](CC(=O)O)C(=O)N[C@@H](CCCCNC)C(=O)N[C@@H](CCCCN)C(=O)N[C@@H](Cc1ccc(O)cc1)C(N)=O)C(C)C` [B6.3] (Ac-DVIVGAAWD[Lys(Me)]KY-NH2) is above 5 µM; for Ac-DAWDYKY-NH2 [B9.2] it is above 5 µM.
Turning to `CC(=O)N[C@H](CC(=O)O)C(=O)NCC(=O)N[C@@H](C)C(=O)N[C@@H](C)C(=O)N[C@@H](Cc1c[nH]c2ccccc12)C(=O)N[C@@H](CC(=O)O)C(=O)N[C@@H](Cc1ccc(O)cc1)C(=O)N[C@@H](CCCCN)C(=O)N[C@@H](Cc1ccc(O)cc1)C(N)=O` [B9.8] (Ac-[dD]GAAWDYKY-NH2), the EC50 was above 50 µM.
The same measure, in the same setting: for Ac-DVIVGAAWDYKYLY-NH2 [B7.4] the value was above 5 µM; for Ac-DVIDGAAHDYKY-NH2 [B8.21], above 5 µM; for Ac-DVIDGAAWDYKYLQ-NH2 [B7.8], above 5 µM.
Still for that read-out and setting: for “Ac-GADYKRITVKVN-NH2 [PL-120, reference compound]” the value was 35 µM; for `CC(=O)N[C@H](CC(=O)O)C(=O)N[C@@H](C)C(=O)N[C@@H](Cc1c[nH]c2ccccc12)C(=O)N[C@@H](CC(=O)O)C(=O)N[C@@H](Cc1ccc(O)cc1)C(=O)N[C@@H](CCCCN)C(=O)N[C@@H](Cc1ccc(O)cc1)C(N)=O` [B9.3] (Ac-[dD]AWDYKY-NH2), above 5 µM.
Turning to IVGAAWDYKY [B3.12], the EC50 was above 50 µM.
On the same count and under the same terms, for Ac-DVIDGAAWDYRY-NH2 [B8.7] the value was 6.8 µM; for Ac-DVIDGAAWDYKYLT-NH2 [B7.9], above 5 µM; for Ac-DVIDGPAWDYKY-NH2 [B8.11], 5.8 µM.
On the same count and under the same terms, for Ac-DVIYGAAWDYKYLT-NH2 [B7.11] the value was above 5 µM; for Ac-DVIVGASWDYKY-NH2 [B7.3], above 5 µM.

(Values after article PMC11118832 (Biomolecules, 2024).)
